In assay [1] the test system is Nicotine-evoked [^3H]Dopamine Release from Superfused Rat Striatal Slices. Kind of assay: Inhibition of nicotine-evoked [^3H]dopamine overflow from superfused rat striatal slices. The format is cell-based. To be noted: nicotine 10 μM; for inhibition at 0.1 µM: analog 100 nM, superfused rat striatal slices, read-out: Inhibition Nicotine-evoked [^3H]DA release (% inhibition at 100 nM). On the procedure:
The [^3H]dopamine overflow assay using superfused rat striatal slices preloaded with [^3H]dopamine was used to determine the ability of a probe concentration (100 nM) of each bis-quaternary ammonium analog to inhibited nicotine-evoked [^3H]dopamine overflow. Briefly, coronal slices of rat striata (500 μm, 6-8 mg) were obtained using a Mcllwain tissue chopper. Slices were incubated for 30 min in Krebs' buffer (in mM: 118 NaCl, 4.7 KCl, 1.2 MgCl2, 1.0 NaH2PO4, 1.3 CaCl2, 11.1 α-D-glucose, 25 NaHCO3, 0.11 L-ascorbic acid and 0.004 ethylenediaminetetraacetic acid (EDTA), pH 7.4, saturated with 95% O2/5% CO2) at 34° C. in a metabolic shaker. Slices were then incubated for an additional 30 min in fresh buffer containing 0.1 μM [^3H]dopamine. After rinsing, each slice was transferred to each one of 20 superfusion chambers, maintained at 34° C. and superfused (0.6 ml/min) with oxygenated Krebs' buffer in a Brandel Suprafusion 2500 (Biomedical Research and Development Laboratories, Inc., Gaithersburg, Md.). The buffer contained both nomifensine (10 μM), a dopamine uptake blocker, and pargyline (10 μM), a monoamine oxidase inhibitor, ensuring that [^3H]overflow primarily represented [^3H]dopamine, rather than [^3H]metabolites. Following superfusion for 60 min, two 4-min samples (2.4 ml/sample) were collected to determine basal [^3H]outflow. After collection of the second basal sample, slices from an individual rat were superfused for 40 min in the absence (0 nM; control) or presence of each bis-quaternary ammonium analog (100 nM) to determine the intrinsic activity of the analog, i.e., ability of the analog to evoke [^3H]overflow. Following 40 min of superfusion in the absence or presence of analog, nicotine (10 μM) was added to the superfusion buffer and samples were collected for an additional 40 min to determine the ability of the analog to inhibit nicotine-evoked [^3H]dopamine overflow. At least one striatal slice in each experiment was superfused for 40 min in the absence of analog, followed by superfusion with 10 μM nicotine to determine nicotine-evoked [^3H]dopamine overflow in the absence of analog (nicotine control). After collection of the superfusate samples, the slices were retrieved from the chambers and solubilized using 1 ml of TS-2 tissue solubilizer. Scintillation cocktail (4 ml) was added to the superfusate samples. The pH and volume of the solubilized tissue samples were adjusted to that of the superfusate samples. Radioactivity in the superfusate and tissue samples was determined by liquid scintillation spectroscopy (Packard model B 1600 TR Scintillation Counter, Downer's Grove, Ill.).
For individual analogs, a complete concentration response was determined using the following methodology. Rat striatal slices (500 μm thickness, 6-8 mg wet weight) were incubated for 30 minutes in Krebs buffer (118 mM NaCl, 4.7 mM KCl, 1.2 mM MgCl2, 1.0 mM NaH2PO4, 1.3 mM CaCl2, 11.1 mM glucose, 25 mM NaHCO3, 0.11 mM L-ascorbic acid, and 0.004 mM disodium EDTA; pH 7.4, and saturated with 95% O2/5% CO2) in a metabolic shaker at 34° C. Slices were rinsed with 15 mL of fresh buffer and incubated for an additional 30 minutes in fresh buffer containing 0.1 μM [^3H]dopamine (DA; 6 slices/3 mL). Subsequently, slices were rinsed with 15 mL of fresh buffer and transferred to a glass superfusion chamber. Slices were superfused (1.0 mL/min) for 60 minutes with Krebs buffer containing nomifensine (10 μM) and pargyline (10 μM) and maintained at 34° C., pH 7.4, with continual aeration (95% O2/5% CO2). Three 5-minute samples (5 mL each) were collected to determine basal outflow of [^3H]DA. The bis-quaternary analogs were added to the superfusion buffer after the collection of the third sample and remained in the buffer until 12 consecutive five minute samples were collected. Subsequently, S-(−)-nicotine (10 μM) was added to the buffer and an additional 12 consecutive five minute samples were collected. […]

Assay [2] addresses T1, Rat Striatal Nicotinic Receptors ([^3H]MLA binding sites; α7) (Rattus norvegicus, UniProt Q05941).
T1 construct: Whole brain, excluding cortex and cerebellum, was homogenized in 20 vol of ice-cold buffer; from tissue; host or cells: rat brain membranes (whole brain excluding cortex and cerebellum)
Nature of the assay: Inhibition of [^3H]methyllycaconitine binding to rat brain membranes. As to the method:
(§1) Whole brain, excluding cortex and cerebellum, was homogenized in 20 vol of ice-cold buffer, containing (in mM): 2 HEPES, 11.8 NaCl, 0.48 KCl, 0.25 CaCl2 and 0.12 MgSO4, pH 7.5. Homogenate was centrifuged (25,000 g, 15 min, 4° C.). Pellets were resuspended in 20 vol buffer and incubated at 37° C., for 10 min, cooled to 4° C. and centrifuged (25,000 g, 15 min, 4° C.). Pellets were resuspended and centrifuged using the same conditions. Final pellets were stored in assay buffer, containing (in mM): 20 HEPES, 118 NaCl, 4.8 KCl, 2.5 CaCl2, and 1.2 MgSO4, pH 7.5 at −70° C. Upon use, final pellets were resuspended in ˜20 vol assay buffer. Samples (250 μl) contained 100-140 μg of membrane protein, 3 nM [^3H]nicotine or 3 nM [^3H]methyllycaconitine, and analog (100 nM) in assay buffer containing 50 mM Tris. Control was in the absence of analog. In [^3H]nicotine and [^3H]methyllycaconitine binding assays, nonspecific binding was determined in the presence of 10 μM cytisine and 10 μM nicotine, respectively. Incubations proceeded for 60 min at room temperature using 96-well plates and were terminated by harvesting on Unifilter-96 GF/B filter plates presoaked in 0.5% polyethylenimine, using a Packard FilterMate harvester. After washing 5 times with 350 μl ice-cold assay buffer, filter plates were dried (60 min, […]), bottom-sealed, and filled with Packard's MicroScint 20 cocktail (40 μl/well). After 60 min, filter plates were top-sealed, and radioactivity determined using a Packard TopCount. Protein concentrations were determined using the Bradford dye-binding procedure bovine serum albumin as the standard.
(§2) […] Specific binding in the [^3H]NIC binding assay is calculated as the difference between the total binding of 3 nM [^3H]NIC and nonspecific binding in the presence of 10 μM cytisine. Specific binding for the [^3H]MLA binding assay is calculated as the difference between the total binding of 3 nM [^3H]MLA to the receptors alone and its nonspecific binding in the presence of 10 μM nicotine. Analog-induced inhibition of nicotine-evoked [^3H]DA release is calculated as a percent of that in the absence of the bis-quaternary ammonium analog.

The target in assay [3] is T2, Rat Striatal Nicotinic Receptors ([^3H]NIC binding sites; α4β2) (Rattus norvegicus, UniProt P09483+P12390).
T2 construct: Whole brain, excluding cortex and cerebellum, was homogenized in 20 vol of ice-cold buffer; from tissue; host or cells: rat brain membranes (whole brain excluding cortex and cerebellum)
Nature of the assay: Inhibition of [^3H]nicotine binding to rat brain membranes. On the procedure: as §1, §2

The mark [4] stands for this setting: 3 nM [^3H]methyllycaconitine, nonspecific binding with 10 μM nicotine, rat brain membranes, read-out: Inhibition of [^3H]MLA Binding Ki (μM; M ± SEM).
Where [5] appears, read: 3 nM [^3H]nicotine, nonspecific binding with 10 μM cytisine, rat brain membranes, read-out: Inhibition of [^3H]Nicotine binding Ki (μM; M ± SEM).

Like-named read-outs stand apart in the source and are kept apart here.

T1 sequence (Q05941 23-502): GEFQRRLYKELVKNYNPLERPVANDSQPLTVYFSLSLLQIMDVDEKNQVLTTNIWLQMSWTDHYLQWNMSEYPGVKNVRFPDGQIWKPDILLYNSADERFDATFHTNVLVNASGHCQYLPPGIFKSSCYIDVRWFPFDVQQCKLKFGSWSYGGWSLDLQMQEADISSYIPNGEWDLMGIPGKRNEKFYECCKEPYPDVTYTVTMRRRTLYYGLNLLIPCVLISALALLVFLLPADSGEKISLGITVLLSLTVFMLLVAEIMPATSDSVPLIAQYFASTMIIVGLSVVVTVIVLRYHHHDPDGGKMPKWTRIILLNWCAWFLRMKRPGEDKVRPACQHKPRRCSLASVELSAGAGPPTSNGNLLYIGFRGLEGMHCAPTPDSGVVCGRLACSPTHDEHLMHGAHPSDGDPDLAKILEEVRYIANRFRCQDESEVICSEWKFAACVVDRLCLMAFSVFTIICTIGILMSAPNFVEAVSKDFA
T2 sequence (P09483 31-630): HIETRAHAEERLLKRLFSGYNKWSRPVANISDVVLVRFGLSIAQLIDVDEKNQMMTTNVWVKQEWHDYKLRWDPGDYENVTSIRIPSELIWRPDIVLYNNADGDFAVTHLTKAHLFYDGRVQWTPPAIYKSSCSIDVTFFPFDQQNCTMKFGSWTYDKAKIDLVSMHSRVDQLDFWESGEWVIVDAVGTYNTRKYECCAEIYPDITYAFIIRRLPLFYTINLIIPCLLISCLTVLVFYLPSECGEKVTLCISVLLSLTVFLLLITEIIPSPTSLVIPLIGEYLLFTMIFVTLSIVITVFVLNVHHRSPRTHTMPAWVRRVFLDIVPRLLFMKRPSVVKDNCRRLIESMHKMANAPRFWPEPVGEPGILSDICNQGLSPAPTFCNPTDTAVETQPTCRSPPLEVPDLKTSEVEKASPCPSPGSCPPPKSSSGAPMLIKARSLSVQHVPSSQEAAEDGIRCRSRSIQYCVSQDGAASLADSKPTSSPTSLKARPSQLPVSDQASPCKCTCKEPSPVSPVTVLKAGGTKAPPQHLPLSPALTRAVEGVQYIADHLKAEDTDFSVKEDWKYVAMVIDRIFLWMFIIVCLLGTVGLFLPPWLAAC
T2 sequence (P12390 25-500): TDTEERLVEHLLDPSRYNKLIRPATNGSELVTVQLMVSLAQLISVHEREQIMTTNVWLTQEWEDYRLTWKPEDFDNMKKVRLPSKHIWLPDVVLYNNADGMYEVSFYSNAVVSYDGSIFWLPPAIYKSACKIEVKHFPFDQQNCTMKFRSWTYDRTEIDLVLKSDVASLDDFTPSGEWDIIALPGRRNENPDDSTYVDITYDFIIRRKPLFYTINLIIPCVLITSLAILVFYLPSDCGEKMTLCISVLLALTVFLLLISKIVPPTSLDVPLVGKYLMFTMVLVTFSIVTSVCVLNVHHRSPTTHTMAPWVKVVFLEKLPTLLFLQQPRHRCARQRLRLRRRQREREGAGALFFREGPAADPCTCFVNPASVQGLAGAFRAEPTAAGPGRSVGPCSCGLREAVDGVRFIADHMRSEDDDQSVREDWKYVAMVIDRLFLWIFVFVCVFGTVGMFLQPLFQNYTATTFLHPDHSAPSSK

With `C[n+]1cccc(CCCc2ccc[n+](C)c2)c1` [GZ-527A], the inhibition at 0.1 µM in assay [1] stood at 32%. In addition, the Ki in assay [2] (setting [4]) was greater than 100 µM; in assay [3] (setting [5]), 8.2 ± 1.78 µM.
As to `C[n+]1ccc(CCCc2cc[n+](C)cc2)cc1` [GZ-527B], the inhibition at 0.1 µM in assay [1] stood at 67%. Further, in assay [1] (full concentration response, rat striatal slices), the “concentration dependent inhibition of the effect of nicotine to evoke [^3H]dopamine release (FIG. 1)” value was “concentration dependent inhibition”. Besides, the inhibition constant Ki was greater than 100 µM in assay [2] and 7.88 ± 1.68 µM in assay [3].
As for `C[n+]1ccccc1CCCc1cccc[n+]1C` [GZ-528A], in assay [1], the inhibition at 0.1 µM was found to be 49%. Besides, the Ki is greater than 100 µM in assay [2] and 8.17 ± 0.17 µM in assay [3].
As for `Cc1cc(CCCc2cc(C)c[n+](C)c2)c[n+](C)c1` [GZ-528B], the inhibition at 0.1 µM in assay [1] was found to be 30%. Also, the Ki in assay [2] (setting [4]) and in assay [3] (setting [5]) was greater than 100 µM in each case.
Consider `Cc1ccc[n+](CCCc2ccc[n+](C)c2)c1` [GZ-529A], for which the inhibition at 0.1 µM in assay [1] came out at 43%. In addition, the inhibitory constant (Ki) in assay [2] (setting [4]) and in assay [3] (setting [5]) was greater than 100 µM in each case.
In the case of `Cc1cc(C)c[n+](CCCc2ccc[n+](C)c2)c1` [GZ-529B], the inhibition at 0.1 µM in assay [1] came to 25%. Moreover, the inhibition constant Ki in assay [2] and in assay [3] was greater than 100 µM each time.
On to `CN1CCC[C@@H]1c1ccc[n+](CCCc2ccc[n+](C)c2)c1` [GZ-530A], for which, in assay [1], the inhibition at 0.1 µM amounted to 43%. The Ki was greater than 100 µM in assay [2] and 6.62 ± 1.14 µM in assay [3].
In the case of `C[n+]1cccc(CCC[n+]2ccccc2)c1` [GZ-530B], the inhibition at 0.1 µM in assay [1] was found to be 9%. Besides, the Ki was greater than 100 µM in assay [2] and 23.4 ± 3.94 µM in assay [3].

The values above are taken from patent US9540327B2, “Bis-quaternary ammonium salts and methods for modulating neuronal nicotinic acetylcholine receptors” (University of Kentucky Research Foundation, priority 2006, dated 2017).
